# How the values were obtained:
# Type in all cases: cell-based
# human CYP11B2 [1] = biological target: T1, human CYP11B2 (Homo sapiens (Human), UniProt P19099); assay: V79-Human-CYP11B2 cell assay; details: V79 cells expressing human CYP11B2; 125 nM 11-deoxycorticosterone; aldosterone by HTRF
# Experimental: (§1) V79 cell lines stably expressing the either the human CYP11B2 or the human CYP11B1 enzyme were generated using a standard transfection protocol. V79 cells were transfected with plasmids pTriEx3-Hygro-hCyp11B2 or pTriEx3-Hygro-hCyp11B1 using Lipofectamine2000 reagent. V79 cells that stably express the human CYP11B2 or human CYP11B1 enzyme were selected for and maintained in DMEM supplemented with 10% FBS and 400 μg/mL hygromycin for 2 weeks. Single cell clones were generated by infinite dilution in DMEM supplemented with 10% FBS and 400 μg/mL hygromycin until single colonies were obtained. […] For testing of inhibitors, cells were harvested at 80% confluency with 0.05% Trypsan-EDTA, washed once in PBS, and reconstituted in DMEM+0.1% BSA media at a cell concentration of 600,000 cells/mL for the CYP11B2 assay and 280,000 cells/mL for the CYP11B1 assay. 25 μL of cells were added to a 384 well tissue culture treated plate and mixed with 0.3 μL of inhibitor or DMSO (1% final DMSO concentration) for 1 hour at 37° C., 5% CO2. After pre-incubation with inhibitor, the reaction was initiated by adding 5 μL of substrate (final concentration of 125 nM 11-deoxycorticosterone for the CYP11B2 assay or 250 nM 11-deoxycortisol for the CYP11B1 assay). The reaction was carried out for 3 hours at 37° C., 5% CO2 and was stopped by harvesting the supernatants. The amount of product in the supernatant (aldosterone for CYP11B2 assay and cortisol for the CYP11B1 assay) was measured using HTRF-based assay kit (Aldosterone HTRF-CisBio#64ALDPEB, Cortisol HTRF-CisBio #63IDC002-CORT). IC50s for the inhibitor were determined by plotting the amount of product formed against the concentration of inhibitor using sigmoidal dose-response curve (variable slope) fit in GraphPad.
# human CYP11B1 [2] = biological target: T2, human CYP11B1 (Homo sapiens (Human), UniProt P15538); assay: V79-Human-CYP11B1 cell assay; details: V79 cells expressing human CYP11B1; 250 nM 11-deoxycortisol; cortisol by HTRF
# T2 sequence (P15538 25-503): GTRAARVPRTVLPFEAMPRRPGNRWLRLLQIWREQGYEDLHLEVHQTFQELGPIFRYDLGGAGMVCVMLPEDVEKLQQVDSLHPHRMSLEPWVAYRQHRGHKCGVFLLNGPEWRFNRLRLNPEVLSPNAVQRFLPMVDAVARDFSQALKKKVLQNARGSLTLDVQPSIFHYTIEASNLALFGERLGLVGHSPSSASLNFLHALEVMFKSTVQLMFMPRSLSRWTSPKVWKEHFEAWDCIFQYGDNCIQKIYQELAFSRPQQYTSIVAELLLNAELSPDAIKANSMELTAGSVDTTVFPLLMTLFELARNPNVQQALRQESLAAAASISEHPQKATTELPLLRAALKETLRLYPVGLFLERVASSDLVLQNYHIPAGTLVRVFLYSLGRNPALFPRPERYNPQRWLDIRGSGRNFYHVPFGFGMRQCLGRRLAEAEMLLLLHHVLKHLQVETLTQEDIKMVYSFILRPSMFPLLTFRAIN
# Experimental: V79 cell lines stably expressing the either the human CYP11B2 or the human CYP11B1 enzyme were generated using a standard transfection protocol. V79 cells were transfected with plasmids pTriEx3-Hygro-hCyp11B2 or pTriEx3-Hygro-hCyp11B1 using Lipofectamine2000 reagent. V79 cells that stably express the human CYP11B2 or human CYP11B1 enzyme were selected for and maintained in DMEM supplemented with 10% FBS and 400 μg/mL hygromycin for 2 weeks. Single cell clones were generated by infinite dilution in DMEM supplemented with 10% FBS and 400 μg/mL hygromycin until single colonies were obtained. Clones V79-hCYP11B2-CLE9 and V79-hCYP11B1-CL8C7, were determined to produce the most aldosterone and cortisol, respectively, and were selected for inhibitor screening. For testing of inhibitors, cells were harvested at 80% confluency with 0.05% Trypsan-EDTA, washed once in PBS, and reconstituted in DMEM+0.1% BSA media at a cell concentration of 600,000 cells/mL for the CYP11B2 assay and 280,000 cells/mL for the CYP11B1 assay. 25 μL of cells were added to a 384 well tissue culture treated plate and mixed with 0.3 μL of inhibitor or DMSO (1% final DMSO concentration) for 1 hour at 37° C., 5% CO2. After pre-incubation with inhibitor, the reaction was initiated by adding 5 μL of substrate (final concentration of 125 nM 11-deoxycorticosterone for the CYP11B2 assay or 250 nM 11-deoxycortisol for the CYP11B1 assay). The reaction was carried out for 3 hours at 37° C., 5% CO2 and was stopped by harvesting the supernatants. The amount of product in the supernatant (aldosterone for CYP11B2 assay and cortisol for the CYP11B1 assay) was measured using HTRF-based assay kit (Aldosterone HTRF-CisBio#64ALDPEB, Cortisol HTRF-CisBio #63IDC002-CORT). IC50s for the inhibitor were determined by plotting the amount of product formed against the concentration of inhibitor using sigmoidal dose-response curve (variable slope) fit in GraphPad.
# human CYP11B2 [3] = biological target: T1, human CYP11B2; assay: V79-Human-CYP11B2 cell assay, modified protocol; details: V79 cells expressing human CYP11B2
# Experimental: as §1
# (§2) For the CYP11B2 assay, cells were reconstituted in DMEM+0.1% BSA media at a cell concentration of 600,000 cells/mL and for the CYP11B1 assay cells were reconstituted in DMEM+0.1% BSA media at a cell concentration of 280,000 cells/mL. 25 μl of cells were added to a 384 well tissue culture treated plate and mixed with […] or DMSO (1% final DMSO concentration) for 1 hour at 37° C., 5% CO2.
# human CYP11B1 [4] = biological target: T2, human CYP11B1; assay: V79-Human-CYP11B1 cell assay, modified protocol; details: V79 cells expressing human CYP11B1
# Experimental: as §1, §2
# T1 sequence (P19099 25-503): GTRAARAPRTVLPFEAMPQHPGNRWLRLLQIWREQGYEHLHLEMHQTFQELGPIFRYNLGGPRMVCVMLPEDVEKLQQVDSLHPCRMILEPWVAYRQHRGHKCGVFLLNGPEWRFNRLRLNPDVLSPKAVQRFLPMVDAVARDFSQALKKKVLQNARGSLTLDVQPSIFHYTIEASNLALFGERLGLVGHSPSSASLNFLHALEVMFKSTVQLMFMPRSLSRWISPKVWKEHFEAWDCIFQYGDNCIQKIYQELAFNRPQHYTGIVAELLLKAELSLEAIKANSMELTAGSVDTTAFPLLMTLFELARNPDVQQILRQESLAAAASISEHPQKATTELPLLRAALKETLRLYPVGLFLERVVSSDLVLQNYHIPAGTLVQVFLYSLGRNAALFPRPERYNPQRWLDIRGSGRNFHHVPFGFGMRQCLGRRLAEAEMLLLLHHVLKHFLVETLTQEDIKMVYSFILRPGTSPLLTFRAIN
Structure (SMILES),IC50 (human CYP11B2 [1]) [µM],IC50 (human CYP11B1 [2]) [µM],IC50 (human CYP11B2 [3]) [µM],IC50 (human CYP11B1 [4]) [µM]
"CC(=O)N1CCc2cc(-c3cncc(F)c3)ccc21 [Example 1, 1-(5-(5-fluoropyridin-3-yl)indolin-1-yl)ethanone]",0.11,> 10,,
"CC(=O)N1CCc2cc(-c3cncc(F)c3)cc(Cl)c21 [Example 2, 1-(7-chloro-5-(5-fluoropyridine-3-yl)indolin-1-yl)ethanone]",0.012,7.9,,
"COc1cncc(-c2cc(Cl)c3c(c2)CCN3C(C)=O)c1 [Example 3, 1-(7-chloro-5-(5-methoxypyridin-3-yl)indolin-1-yl)ethanone]",0.0041,0.13,,
"CC(=O)N1CCc2cc(-c3cncc([C@](C)(O)C(F)(F)F)c3)cc(Cl)c21 [Example 4, (S)-1-(7-chloro-5-(5-(1,1,1,-trifluoro-2-hydroxypropan-2-yl)pydine-3-yl)indolin-1-yl)ethanone]",0.0012,0.026,,
"CC(=O)N1CCc2cc(-c3cncc([C@@](C)(O)C(F)(F)F)c3)cc(Cl)c21 [Example 5, (R)-1-(7-chloro-5-(5-(1,1,1,-trifluoro-2hydroxypropan-2-yl)pyridine-3-yl)indolin-1-yl)ethanone]",0.0024,0.053,,
"CC(=O)N1CCc2cc(-c3cncc(C(F)(F)F)c3)cc(Cl)c21 [Example 6, 1-(7-chloro-5-(5-(triuoromethyl)pyridine-3-yl)indolin-1-yl)ethanone]",0.0075,0.4,,
"CC(=O)N1CCc2cc(-c3cnccc3C(F)(F)F)cc(Cl)c21 [Example 7, 1-(7-chloro-5-(4-(trifluoromethyl)pyridine-3-yl)indolin-1-yl)ethanone]",0.005,0.61,,
"CCc1c(F)cncc1-c1cc(Cl)c2c(c1)CCN2C(C)=O [Example 9, 1-(7-chloro-5-(4-ethyl-5-fluoropyridin-3-yl)indolin-1-yl)ethanone]",0.0023,0.4,,
"CC(=O)N1CCc2cc(-c3cncc(C#N)c3C)cc(Cl)c21 [Example 10, 5-(1-acetyl-7-chloroindolin-5-yl) 4-methylnicotinotrile]",0.035,1.6,,
"CC(=O)N1CCc2cc(-c3cncc4ccccc34)cc(Cl)c21 [Example 11, 1-(7-chloro-5-(isoquinolin-4-yl)indolin-1-yl)ethanone]",0.0007,0.06,,
"CC(=O)N1CCc2cc(-c3cccnc3)cc(F)c21 [Example 12, 1-(7-fluoro-5-(pyridine-3-yl)indolin-1-yl) ethanone]",0.0049,0.9,,
"CC(=O)N1CCc2cc(-c3cncc([C@](C)(O)C(F)(F)F)c3)cc(F)c21 [Example 13, (S)-1-(7-fluoro-5-(5-(1,1,1-trifluoro-2-hydroxypropan-2-yl)pyridin-3-yl)indolin-1-yl)ethanone]",0.0021,0.023,,
"CC(=O)N1CCc2cc(-c3cncc([C@@](C)(O)C(F)(F)F)c3)cc(F)c21 [Example 14, (R)-1-(7-fluoro-5-(5-(1,1,1-trifluoro-2-hydroxypropan-2-yl)pyridin-3-yl)indolin-1-l)ethanone]",0.0008,0.013,,
"CC(=O)N1CCc2cc(-c3cncc(C#N)c3)cc(F)c21 [Example 16, 5-(1-acetyl-7-fluoroindolin-5-yl)nicotinonitrile]",0.097,> 10,,
"CC(=O)N1CCc2cc(-c3cncc(C#N)c3C)cc(F)c21 [Example 17, 5-(1-acetyl-7-fluoroindolin-5-yl)-4-methylnicotino nitrile]",0.012,0.54,,
"CC(=O)N1CCc2cc(-c3cncc(F)c3)cc(F)c21 [Example 18, 1-(7-fluoro-5-(5-fluoropyridine-3-yl)indolin-1-yl)-ethanone]",0.015,1.1,,
"CC(=O)N1CCc2cc(-c3cncc(F)c3C)cc(F)c21 [Example 19, 1-(7-fluoro-5-(5-fluoro-4-methylpyridine-3-yl)indolin-1-yl)-ethanone]",0.001,0.1,,
"CCc1c(F)cncc1-c1cc(F)c2c(c1)CCN2C(C)=O [Example 20, 1-(5-(4-ethyl-5-fluoropyridine-3-yl)-7-fluoroindolin-1-yl)ethanone]",0.0016,0.5,,
"CCC(=O)N1CCc2cc(-c3cccnc3)ccc21 [Example 21, 1-propanoyl-5-pyridin-3-yl-2,3-dihydro-1H-indole]",,,0.228,4.74
"COc1ccc(C(=O)N2CCc3cc(-c4cccnc4)ccc32)cc1 [Example 25, 1-[(4-methoxy-phenyl)carbonyl]-5-pyridin-3-yl-2,3-dihydro-1H-indole]",,,1.43,> 5
"O=C(Cc1ccccc1)N1CCc2cc(-c3cccnc3)ccc21 [Example 26, 1-(Phenylacetyl)-5-pyridin-3-yl-2,3-dihydro-1H-indole]",,,3.07,> 5
"CCC(=O)N1CCc2cc(-c3cncc4ccccc34)ccc21 [Example 29, 4-(1-propanoyl-2,3-dihydro-1H-indol-5-yl)isoquinoline]",,,0.0028,0.516
"O=C(C1CC1)N1CCc2cc(-c3cncc4ccccc34)ccc21 [Example 31, 4-[1-(cyclopropyl-carbonyl)-2,3-dihydro-1H-indol-5-yl]isoquinoline]",,,0.152,6.09
"CC(=O)N1CCc2cc(-c3cccnc3)cc(Cl)c21 [Example 43, 1-(7-chloro-5-(pyridin-3-yl)indolin-1-yl)ethanone]",0.0074,0.57,,
"CC(=O)N1CCc2cc(-c3cccnc3)c(Cl)cc21 [Example 44, 1-(6-chloro-5-(pyridin-3-yl)indoline-1-yl)ethanone]",0.64,0.47,,
"CC(=O)N1CCc2cc(-c3cncc(F)c3)c(Cl)cc21 [Example 45, 1-(6-chloro-5-(5-fluoropyridine-3-yl)indolin-1-yl)ethanone]",0.81,0.76,,
"CCc1c(F)cncc1-c1cc2c(cc1Cl)N(C(C)=O)CC2 [Example 46, 1-(6-chloro-5-(4-ethyl-5-fluoropyridine-3-yl)indolin-1-yl)ethanone]",0.62,0.78,,
"CC(=O)N1CCc2cc(-c3cccnc3)c(F)cc21 [Example 47, 1-(6-fluoro-5-(pyridin-3-yl)indon-1-yl)ethanone]",0.18,0.38,,
"CC(=O)N1CCc2cc(-c3cncc(F)c3)c(F)cc21 [Example 48, 1-(6-fluoro-5-(5-fluoropyridin-3-yl)indolin-1-yl)ethanone]",,> 10,,
"CCc1c(F)cncc1-c1cc2c(cc1F)N(C(C)=O)CC2 [Example 49, 1-(5-(4-ethyl-5-fluoropyridin-3-yl)-6-fluoroindolin-1-yl)ethanone]",0.17,4,,
